Assays:
[1] = tested on: pAKT(Ser473) in MDA-MB-468 cells; assay: pAKT(Ser473) assay in MDA-MB-468 cells; format: cell-based; details: Homo sapiens, 0.5 h, compound treatment 30 minutes, MSD ELISA phospho AKT(Ser473), given as ranges, read-out: Cell Activity—pAKT IC50 in MDA-MB-468
Protocol: pAKT(Ser473) Assay in MDA-MB-468 Cells
MDA-MB-468 cells were plated in 384-well flat clear bottom tissue culture plates (Corning #3701) at a density of 5000 cells per 0.057 cm2 in 48 ul of RPMI 1640 media supplemented with 10% fetal bovine serum (FBS). Cells were seeded with a Wellmate liquid handler (Matrix). Columns 1 through 23 were plated with cells and column 24 contained media alone. Cells were incubated at 37° C. with 5% CO2 for approximately 16-20 hours. Duplicate compound plates were prepared in 384-well polypropylene V-Bottom plates (Greiner #781280).
Compound titrations were made across the columns (A1-A20). 20 ul of compound was added to the first column and diluted into a 20 point curve with dimethylsulfoxide (DMSO, Thermo #TS2064) using a 2-fold dilution factor with a liquid handling robot (Hamilton). Columns 22 through 24 contained DMSO alone. Titrations were diluted 682-fold for compound treatment with 4 ul of compound added to 105 ul of RPMI media. Two ul of the diluted compound was added to the cell plates containing 48 ul of media using a multimek robot (Beckman Coulter). Final DMSO concentrations were 0.15%. Cells were treated with compound for 30 minutes at 37° C. with 5% CO2.
Following incubation, media was aspirated from dosed cell plates using an ELx405 plate washer (Bio-Tek) and 25 ul of 4° C. Meso Scale Discovery (MSD) lysis buffer with the addition of protease and phosphatase inhibitors (supplied in MSD kit #N31CB-1) was added to each well using a multidrop combi (Thermo). Precoated 4-spot per well MSD ELISA plates coated with total and phospho AKT(Ser473) antibody and BSA (supplied in kit) were blocked for 1 hour at room temperature with 35 ul per well of 1× MSD wash buffer+3% BSA (supplied in kit).
Blocked plates were washed 4 times with 100 ul per well of 1× Tris wash buffer (supplied in MSD kit) using an Elx405 plate washer (Bio-Tek). To each well, 20 ul of cell lysate was added using a multimek robot (Beckman Coulter) and the plate incubated at 4° C. overnight (˜12-24 hours). Following incubation, the ELISA plates were washed 4 times (100 ul/well) with 1× Tris wash buffer. Twenty microliters per well of 1× detection antibody (supplied in MSD kit) was added using a multidrop combi (Thermo), followed by a 2 hour incubation at room temperature. Detection antibody was aspirated and the plates washed 4 times (100 ul/well) with 1× Tris wash buffer. Read Buffer (supplied in MSD kit) was added at 1× (35 ul/well) at room temperature using a multidrop (Thermo). Relative luminescence units (RLU) were determined using a SECTOR™ Imager 6000 with MSD Workbench Software.
Concentration Response Curves for pAKT(Ser473):
For analysis of the pAKT(Ser473) concentration response curves, the data was normalized using Phospho AKT values divided by the sum of corresponding Total AKT and Phospho AKT values. The normalized values are plotted as the percent of the DMSO-treated control values on the corresponding plate. To determine IC50 values, the data is fit to a 4 parameter nonlinear sigmoidal dose response (variable slope) using GraphPad Prism version 4 for Windows, (GraphPad Software, San Diego Calif. USA). Criteria for curve fitting and IC50 determination include that the IC50 values from duplicate runs must be within 2 to 3-fold of each other, the Y min must be less than or equal to 30% of the DMSO-treated control and the Y max must range between 80-120%. Any data point equal to or greater than 40% of the curve was not utilized.

PI3K-beta = biological target: T1, PI3K-beta (Homo sapiens, UniProt P42338); assay: HTRF in vitro profiling assay for PI3K inhibition (beta isoform); format: biochemical; details: PI3K-beta enzyme pIC50 range, 200 pM enzyme, 100 uM ATP, 10 uM PIP2, 150 mM NaCl, corrected pIC50, read-out: PI3K-b Enz Activity
T1 construct: made in house
T1 sequence (P42338 whole entry, canonical isoform): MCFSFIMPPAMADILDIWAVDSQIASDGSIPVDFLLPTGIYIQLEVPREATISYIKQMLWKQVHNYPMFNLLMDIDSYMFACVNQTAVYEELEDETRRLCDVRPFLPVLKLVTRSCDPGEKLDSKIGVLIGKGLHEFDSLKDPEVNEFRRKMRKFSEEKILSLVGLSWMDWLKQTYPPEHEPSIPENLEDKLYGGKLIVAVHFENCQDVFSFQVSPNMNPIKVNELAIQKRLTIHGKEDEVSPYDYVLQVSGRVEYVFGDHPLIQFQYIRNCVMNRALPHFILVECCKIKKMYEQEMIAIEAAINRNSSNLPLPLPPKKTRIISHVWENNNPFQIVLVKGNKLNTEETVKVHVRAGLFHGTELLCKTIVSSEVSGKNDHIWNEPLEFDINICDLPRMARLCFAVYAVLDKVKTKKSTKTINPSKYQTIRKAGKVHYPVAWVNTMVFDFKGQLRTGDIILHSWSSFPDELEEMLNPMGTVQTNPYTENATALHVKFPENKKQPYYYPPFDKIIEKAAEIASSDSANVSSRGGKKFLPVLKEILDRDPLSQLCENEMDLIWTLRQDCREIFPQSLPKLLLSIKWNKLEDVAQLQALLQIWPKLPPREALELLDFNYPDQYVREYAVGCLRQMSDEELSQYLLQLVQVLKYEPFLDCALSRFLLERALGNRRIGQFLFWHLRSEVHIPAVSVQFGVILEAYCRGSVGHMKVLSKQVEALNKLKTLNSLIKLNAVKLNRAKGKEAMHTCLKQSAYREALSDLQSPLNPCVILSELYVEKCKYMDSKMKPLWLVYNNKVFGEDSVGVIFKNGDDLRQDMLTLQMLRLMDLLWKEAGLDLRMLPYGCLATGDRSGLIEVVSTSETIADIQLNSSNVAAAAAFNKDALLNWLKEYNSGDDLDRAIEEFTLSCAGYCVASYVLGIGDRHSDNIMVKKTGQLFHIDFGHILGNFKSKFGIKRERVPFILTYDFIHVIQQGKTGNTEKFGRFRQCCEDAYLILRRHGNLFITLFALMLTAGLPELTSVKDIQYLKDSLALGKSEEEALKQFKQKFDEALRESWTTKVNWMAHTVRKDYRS
T1 sequence (P27986 whole entry partner, canonical isoform): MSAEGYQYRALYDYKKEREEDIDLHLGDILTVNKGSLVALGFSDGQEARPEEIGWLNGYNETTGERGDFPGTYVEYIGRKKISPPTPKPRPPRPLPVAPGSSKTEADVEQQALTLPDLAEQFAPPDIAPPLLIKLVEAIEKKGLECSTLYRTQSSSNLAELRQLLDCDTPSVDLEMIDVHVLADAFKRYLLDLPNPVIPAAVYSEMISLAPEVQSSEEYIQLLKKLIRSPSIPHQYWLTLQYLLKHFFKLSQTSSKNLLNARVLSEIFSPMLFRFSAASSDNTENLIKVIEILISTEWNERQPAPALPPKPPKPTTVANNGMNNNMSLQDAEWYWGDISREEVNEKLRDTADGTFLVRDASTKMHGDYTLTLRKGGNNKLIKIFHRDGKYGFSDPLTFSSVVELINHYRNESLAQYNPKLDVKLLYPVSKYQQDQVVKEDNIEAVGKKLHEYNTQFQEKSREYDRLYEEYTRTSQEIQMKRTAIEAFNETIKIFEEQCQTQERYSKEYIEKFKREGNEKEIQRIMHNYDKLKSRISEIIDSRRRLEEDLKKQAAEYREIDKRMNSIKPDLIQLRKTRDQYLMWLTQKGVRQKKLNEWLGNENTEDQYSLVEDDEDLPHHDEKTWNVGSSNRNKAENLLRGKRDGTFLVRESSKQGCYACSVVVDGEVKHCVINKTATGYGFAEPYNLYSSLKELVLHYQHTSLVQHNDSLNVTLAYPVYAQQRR
Text: HTRF In Vitro Profiling Assays for PI3K Inhibition
The PI3-Kinase profiling assays were developed to measure the compound-dependent inhibition of the alpha, beta, delta, and gamma isoforms of PI3K in an in vitro catalytic assay. This assay was developed and optimized from a kit produced by Upstate (Millipore catalog #33-017). Briefly, this procedure utilizes a pre-formed HTRF (Homogeneous Time-Resolved Fluorescence energy transfer) complex between four binding partners: 1) biotinylated PIP3, 2) GST tagged pleckstrin homology (PH) domain, 3) Europium labeled anti-GST monoclonal antibody, and 4) Streptavidin-Allophycocyanin (APC). The native PIP3 produced by PI 3-Kinase activity displaces biotin-PIP3 from the PH domain, resulting in the dissociation of the HTRF complex and a decrease in the fluorescence signal. The format of this assay is the same for all 4 isoforms of PI3K; the differences lie in the concentration of enzyme used to achieve the most robust signal. The alpha and delta assays are run at 400 pM enzyme; the beta assay is at 200 pM enzyme and the gamma assay is run at 1 nM enzyme. In addition, the alpha, beta and delta assays are run with 150 mM NaCl while the gamma assay is run in the absence of NaCl. The ATP concentration is 100 uM in the alpha, beta, and delta assays and 15 uM ATP in the gamma assay. All reactions are run at 10 uM PIP2
Compounds are serially diluted (3-fold in 100% DMSO) across a 384-well polypropylene mother plate from column 1 to column 12 and column 13 to column 24, to yield 11 concentrations for each test compound. Columns 6 and 18 contain only DMSO. Once titrations are made, […] is transferred to a 384-well low-volume assay plate (Greiner 784076). This assay plate contains three pharmacological controls (known PI3K inhibitors) and 3 assay controls: (1) Enzyme without inhibitor; (2) Buffer minus enzyme, and (3) Buffer minus enzyme plus native PIP3. DMSO is stamped into all wells of columns 6 and 18. PIP3 is added at 40 μM in 1× Reaction buffer (1 μL of 200 μM PIP3) to alternating rows of column 18 (wells 18 B, D, F, H, J, L, N, P). The no-enzyme control reactions are run in wells 18 A, C, E, G, I, K, M, O (0.1 μL of 100% DMSO).
The PI3-Kinase profiling assay was optimized using the HTRF kit provided by Upstate (Millipore). The assay kit contains seven reagents: 1) 4× Reaction Buffer; 2) native PIP2 (substrate); 3) Stop A (EDTA); 4) Stop B (Biotin-PIP3); 5) Detection Mix A (Streptavidin-APC); 6) Detection Mix B (Eu-labeled Anti-GST plus GST-tagged PH-domain); 7) Detection Mix C (KF). In addition, the following items were obtained or purchased: PI3Kinase (prepared by GSK BR&AD), dithiothreitol (Sigma, D-5545), Adenosine-5′-triphosphate (ATP, Teknova cat. # A0220), native PIP3 (1,2-dioctanoyl-sn-glycero-3-[phosphoinositil-3,4,5-triphosphate]tetraammonium salt (Avanti polar lipids, 850186P), DMSO (Sigma, 472301).
PI3Kinase Reaction Buffer is prepared by diluting the stock 1:4 with de-ionized water. Freshly prepared DTT is added at a final concentration of 5 mM on the day of use. Enzyme addition and compound pre-incubation are initiated by the addition of 2.5 μL of PI3K (at twice its final concentration) in 1× reaction buffer to all wells using a Multidrop Combi. Plates are incubated at room temperature for 15 minutes. Reactions are initiated by addition of 2.5 μL of 2× substrate solution (PIP2 and ATP in 1× reaction buffer) using a Multidrop Combi. Plates are incubated at room temperature for one hour. Reactions are quenched by the addition of 2.5 μL of stop solution (Stop A and Stop B pre-mixed at a ratio of 5:1, respectively) to all wells using the Multidrop Combi. […]

| Structure (SMILES) | IC50 [1] [nM] | IC50 (PI3K-beta) [nM] |
| --- | --- | --- |
| Oc1cc(C2CCOCC2)nc2c(Cc3cccc(Cl)c3Cl)c(C(F)(F)F)nn12 [Example 9, 3-(2,3-dichlorobenzyl)-5-(tetrahydro-2H-pyran-4-yl)-2-(trifluoromethyl)pyrazolo[1,5-a]pyrimidin-7-ol] | > 20000 | 1.26 to 10 |
| Cc1c(Cc2cccc(Cl)c2Cl)c2nc(-c3ccncc3)cc(=O)n2n1C [Example 33, 3-(2,3-dichlorobenzyl)-1,2-dimethyl-5-(pyridin-4-yl)pyrazolo[1,5-a]pyrimidin-7(1H)-one] | > 20000 | 126 to 1260 |
| CCc1nn2c(O)cc(C3CCOCC3)nc2c1Cc1cccc(Cl)c1Cl [Example 15, 3-(2,3-dichlorobenzyl)-2-ethyl-5-(tetrahydro-2H-pyran-4-yl)pyrazolo[1,5-a]pyrimidin-7-ol] | > 20000 | 1.26 to 10 |
| Cc1c(Cc2cnn3c(-c4cn[nH]c4)cc(N4CCOCC4)nc23)cccc1C(F)(F)F [Example 48, 4-(3-(2-methyl-3-(trifluoromethyl)benzyl)-7-(1H-pyrazol-4-yl)pyrazolo[1,5-a]pyrimidin-5-yl)morpholine] | > 20000 | 126 to 1260 |
| CC1CN(c2cc(O)n3nc(C(F)(F)F)c(Cc4cccc(Cl)c4Cl)c3n2)CCO1 (stereo not shown) [Example 8, 3-(2,3-dichlorobenzyl)-5-(2-methylmorpholino)-2-(trifluoromethyl)pyrazolo[1,5-a]pyrimidin-7-ol] | 6000 to 10000 | 1.26 to 10 |
| Oc1nn2c(O)cc(-c3ccncc3)nc2c1Cc1ccccc1Cl [Example 21, 3-(2-chlorobenzyl)-5-(pyridin-4-yl)pyrazolo[1,5-a]pyrimidine-2,7-diol] | > 20000 | 126 to 1260 |
| Cc1cccc(Cc2cnn3c(O)cc(-c4ccncc4)nc23)c1C [Example 14, 3-(2,3-dimethylbenzyl)-5-(pyridin-4-yl)pyrazolo[1,5-a]pyrimidin-7-ol] | 1000 to 5000 | 1.26 to 10 |
| Nc1nn2c(O)cc(N3CCOCC3)nc2c1Cc1cccc2ccccc12 [Example 23, 2-amino-5-morpholino-3-(naphthalen-1-ylmethyl)pyrazolo[1,5-a]pyrimidin-7-ol] | < 1000 | 0.126 to 1 |
| Cc1nn2c(C(N)=O)cc(N3CCOCC3)nc2c1Cc1cccc2ccccc12 [Example 38, 2-methyl-5-morpholino-3-(naphthalen-1-ylmethyl)pyrazolo[1,5-a]pyrimidine-7-carboxamide] | < 1000 | 12.6 to 100 |

Now from value to molecule:

| IC50 [1] [nM] | IC50 (PI3K-beta) [nM] | Structure (SMILES) |
| --- | --- | --- |
| > 20000 | 126 to 1260 | Cc1nn2c(C#N)cc(N3CCOCC3)nc2c1Cc1cccc(C(F)(F)F)c1C [Example 45, 2-methyl-3-(2-methyl-3-(trifluoromethyl)benzyl)-5-morpholinopyrazolo[1,5-a]pyrimidine-7-carbonitrile] |
| > 20000 | 12.6 to 100 | Cc1nn2c(C(N)=O)cc(N3CCOCC3)nc2c1Cc1cccc(C(F)(F)F)c1C [Example 39, 2-methyl-3-(2-methyl-3-(trifluoromethyl)benzyl)-5-morpholinopyrazolo[1,5-a]pyrimidine-7-carboxamide] |
| 1000 to 5000 | 0.126 to 1 | Cc1nn2c(O)cc(N3CCOCC3)nc2c1Cc1cccc2ccccc12 [Example 22, 2-methyl-5-morpholino-3-(naphthalen-1-ylmethyl)pyrazolo[1,5-a]pyrimidin-7-ol] |
| 1000 to 5000 | 0.126 to 1 | Cc1nn2c(O)cc(N3CCOCC3)nc2c1Cc1cccc(C(F)(F)F)c1C [Example 1, 2-methyl-3-(2-methyl-3-(trifluoromethyl)benzyl)-5-morpholinopyrazolo[1,5-a]pyrimidin-7-ol] |
| < 1000 | 1.26 to 10 | Cc1c(Cc2c(N)nn3c(O)cc(C4CCOCC4)nc23)cccc1C(F)(F)F [Example 25, 2-amino-3-(2-methyl-3-(trifluoromethyl)benzyl)-5-(tetrahydro-2H-pyran-4-yl)pyrazolo[1,5-a]pyrimidin-7-ol] |

— patent US9096605B2, “Pyrazolopyrimidine derivatives as PI3 kinase inhibitors” (GlaxoSmithKline LLC, priority 2011, dated 2015)
